From patent publication US11739074B2, “Ras inhibitors” (Revolution Medicines, Inc., priority 2019, dated 2023)
Read-outs that look alike come from different tables or passages of the source.

How the values were obtained:
Assay type in all cases: cell-based
[1] = tested on: NCI-H358 (K-Ras G12C); test: CellTiter-Glo cell viability assay, H358; conditions: Homo sapiens, NCI-H358, 120 h
Protocol: Determination of Cell Viability in RAS Mutant Cancer Cell Lines
Protocol: CellTiter-Glo® Cell Viability Assay
Note—The following protocol describes a procedure for monitoring cell viability of K-Ras mutant cancer cell lines in response to a compound of the invention. Other RAS isoforms may be employed, though the number of cells to be seeded will vary based on cell line used.
Test compounds (132.5 nL) were directly dispensed into the assay plates containing cells. […] On day 5, assay plates and their contents were equilibrated to room temperature for approximately 30 minutes. […] Luminescence was measured using the PerkinElmer Enspire. Data were normalized by the following: (Sample signal/Avg. DMSO)*100. The data were fit using a four-parameter logistic fit.

[2] = tested on: AsPC-1 (K-Ras G12D); test: Potency assay: pERK in AsPC-1 cells; conditions: Homo sapiens
[3] = tested on: AsPC-1 (K-Ras G12D); test: CellTiter-Glo cell viability assay, AsPC-1; conditions: Homo sapiens, ASPC1, 120 h
Outline: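 Percent-of-DMSO luminescence values (CellTiter-Glo, day 5, plates equilibrated ~30 minutes at ambient temperature) were curve-fitted using a 4-parameter logistic equation; compounds had been added straight into wells containing the cells.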

[4] = NCI-H358, K-Ras G12C, 5-day treatment, read-out: H358 Cell Viability IC50
[5] = ASPC1, AsPC-1 cells, K-Ras G12D, read-out: pERK EC50 (AsPC-1 KRAS G12D)
[6] = AsPC-1, K-Ras G12D, 5-day treatment, read-out: AsPC-1 Cell Viability IC50
[7] = read-out: H358 Cell Viability IC50, NCI-H358, K-Ras G12C, 5-day treatment
[8] = ASPC1, read-out: pERK EC50 (AsPC-1 KRAS G12D)
[9] = read-out: AsPC-1 Cell Viability IC50, AsPC-1, K-Ras G12D, 5-day treatment

| Structure (SMILES) | IC50 [1, 4] [µM] | EC50 [2, 5] [µM] | IC50 [3, 6] [µM] | IC50 [1, 7] [µM] | EC50 [2, 8] [µM] | IC50 [3, 9] [µM] |
| --- | --- | --- | --- | --- | --- | --- |
| CCn1c(-c2cccnc2[C@H](C)OC)c2c3cc(ccc31)-c1cc(O)cc(c1)C[C@H](NC(=O)[C@H](C(C)C)N(C)C(=O)[C@H]1CCN(C(=O)[C@H]3CN3)C1)C(=O)N1CCC[C@H](N1)C(=O)OCC(C)(C)C2 (single isomer, unassigned) [Compound 43A] | < 0.01 | < 5 | 0.1 to 1 | – | – | – |
| CCn1c(-c2cccnc2[C@H](C)OC)c2c3cc(ccc31)-c1cc(O)cc(c1)C[C@H](NC(=O)[C@H](C(C)C)N(C)C(=O)[C@H]1CCN(S(=O)(=O)[C@@H]3CN3C)C1)C(=O)N1CCC[C@H](N1)C(=O)OCC(C)(C)C2 (single isomer, unassigned) [Compound 56] | 0.1 to 1 | < 5 | 1 to 10 | – | – | – |
| CCn1c(-c2cccnc2[C@H](C)OC)c2c3cc(ccc31)-c1cc(O)cc(c1)C[C@H](NC(=O)[C@H](C1CCCC1)N(C)C(=O)CN(C)C(=O)[C@H]1N[C@H]1C1(OC)CC1)C(=O)N1CCC[C@H](N1)C(=O)OCC(C)(C)C2 (single isomer, unassigned) [Compound 322] | 0.01 to 0.1 | < 5 | 1 to 10 | – | – | – |
| CCn1c(-c2cccnc2[C@H](C)OC)c2c3cc(ccc31)-c1cc(O)cc(c1)C[C@H](NC(=O)[C@H](C1CCCC1)N(C)C(=O)CN(C)C(=O)[C@@H]1N[C@@H]1C1(OC)CC1)C(=O)N1CCC[C@H](N1)C(=O)OCC(C)(C)C2 (single isomer, unassigned) [Compound 323] | 0.01 to 0.1 | < 5 | 0.1 to 1 | – | – | – |
| CCn1c(-c2cnccc2COC)c2c3cc(ccc31)-c1cc(O)cc(c1)C[C@H](NC(=O)[C@H](C(C)C)N(C)C(=O)CN(C)C(=O)[C@@H]1N[C@H]1c1ccccc1)C(=O)N1CCC[C@H](N1)C(=O)OCC(C)(C)C2 [Compound 11] | – | – | – | 0.1 to 1 | < 5 | 1 to 10 |
| CCn1c(-c2cnccc2COC)c2c3cc(ccc31)-c1cc(O)cc(c1)C[C@H](NC(=O)[C@H](C(C)C)N(C)C(=O)CN(C)C(=O)[C@H]1N[C@@H]1c1ccccc1)C(=O)N1CCC[C@H](N1)C(=O)OCC(C)(C)C2 [Compound 12] | – | – | – | 0.1 to 1 | < 5 | 0.1 to 1 |
| CCn1c(-c2cnccc2COC)c2c3cc(ccc31)-c1cc(O)cc(c1)C[C@H](NC(=O)[C@H](C(C)C)N(C)C(=O)CCN(C)C(=O)[C@@H]1CN1)C(=O)N1CCC[C@H](N1)C(=O)OCC(C)(C)C2 [Compound 40] | 0.1 to 1 | – | > 10 | – | – | – |
| CCn1c(-c2cccnc2[C@H](C)OC)c2c3cc(ccc31)-c1cc(O)cc(c1)C[C@H](NC(=O)[C@H](C(C)C)N(C)C(=O)CN(C)C(=O)[C@H]1CN1)C(=O)N1CCC[C@H](N1)C(=O)OCC(C)(C)C2 [Compound 42A] | – | – | – | < 0.01 | < 5 | 0.1 to 1 |
| CCn1c(-c2cnccc2COC)c2c3cc(ccc31)-c1cc(O)cc(c1)C[C@H](NC(=O)[C@H](C(C)C)N(C)C(=O)N1CCCN(C(=O)[C@H]3CN3)CC1)C(=O)N1CCC[C@H](N1)C(=O)OCC(C)(C)C2 [Compound 44] | < 0.01 | – | 1 to 10 | – | – | – |
| CCn1c(-c2cnccc2COC)c2c3cc(ccc31)-c1cc(O)cc(c1)C[C@H](NC(=O)[C@H](C(C)C)N(C)C(=O)N1CCCN(C(=O)[C@@H]3CN3)CC1)C(=O)N1CCC[C@H](N1)C(=O)OCC(C)(C)C2 [Compound 45] | 0.1 to 1 | – | > 10 | – | – | – |
| CCn1c(-c2cnccc2COC)c2c3cc(ccc31)-c1cc(O)cc(c1)C[C@H](NC(=O)[C@H](C(C)C)N(C)C(=O)c1ccc(NC(=O)[C@@H]3CN3)cn1)C(=O)N1CCC[C@H](N1)C(=O)OCC(C)(C)C2 [Compound 46] | 0.1 to 1 | – | > 10 | – | – | – |
| CCn1c(-c2cccnc2[C@H](C)OC)c2c3cc(ccc31)-c1cc(O)cc(c1)C[C@H](NC(=O)[C@H](C(C)C)N1CCC3(CCN(C(=O)[C@H]4CN4)C3)C1=O)C(=O)N1CCC[C@H](N1)C(=O)OCC(C)(C)C2 (some centres unmarked) [Compound 59] | < 0.01 | < 5 | 0.1 to 1 | – | – | – |
| CCn1c(-c2cnccc2COC)c2c3cc(ccc31)-c1cccc(c1)C[C@H](NC(=O)[C@H](C(C)C)N(C)C(=O)CCN=C=Nc1ccc(N(C)C)cc1)C(=O)N1CCC[C@H](N1)C(=O)OCC(C)(C)C2 [Compound 66] | 1 to 10 | – | > 10 | – | – | – |
| CCn1c(-c2cnccc2COC)c2c3cc(ccc31)-c1cccc(c1)C[C@H](NC(=O)[C@H](C(C)C)N(C)C(=O)CCN=C=Nc1ccc(N3CCOCC3)cc1)C(=O)N1CCC[C@H](N1)C(=O)OCC(C)(C)C2 [Compound 67] | > 10 | – | > 10 | – | – | – |
| CCn1c(-c2cccnc2[C@H](C)OC)c2c3cc(ccc31)-c1cccc(c1)C[C@H](NC(=O)[C@H](C(C)C)N(C)C(=O)[C@H]1C[C@H](N=C=NCc3ccccc3OC)C1)C(=O)N1CCC[C@H](N1)C(=O)OCC(C)(C)C2 [Compound 77] | 0.1 to 1 | < 5 | 0.1 to 1 | – | – | – |
| CCn1c(-c2cccnc2[C@H](C)OC)c2c3cc(ccc31)-c1cc(O)cc(c1)C[C@H](NC(=O)[C@H](C(C)C)N(C)C(=O)c1ncc(NC(=O)[C@@H]3CN3)n1C)C(=O)N1CCC[C@H](N1)C(=O)OCC(C)(C)C2 [Compound 83] | 0.01 to 0.1 | < 5 | 1 to 10 | – | – | – |
| CCn1c(-c2cccnc2[C@H](C)OC)c2c3cc(ccc31)-c1cc(O)cc(c1)C[C@H](NC(=O)[C@H](C(C)C)N(C)C(=O)CN(C)C(=O)[C@@H]1N[C@H]1COC)C(=O)N1CCC[C@H](N1)C(=O)OCC(C)(C)C2 [Compound 85] | – | – | – | 0.01 to 0.1 | < 5 | 1 to 10 |
| CCn1c(-c2cccnc2[C@H](C)OC)c2c3cc(ccc31)-c1cc(O)cc(c1)C[C@H](NC(=O)[C@H](C(C)C)N(C)C(=O)CN(C)C(=O)C1CN1CCOC)C(=O)N1CCC[C@H](N1)C(=O)OCC(C)(C)C2 (some centres unmarked) [Compound 90] | – | – | – | < 0.01 | < 5 | 0.1 to 1 |
| CCn1c(-c2cnccc2COC)c2c3cc(ccc31)-c1cc(O)cc(c1)C[C@H](NC(=O)[C@H](C(C)C)N(C)C(=O)CN(C)C(=O)[C@@H]1N[C@H]1c1ccc(OC)cc1)C(=O)N1CCC[C@H](N1)C(=O)OCC(C)(C)C2 [Compound 96] | – | – | – | 1 to 10 | < 5 | 1 to 10 |
| CCn1c(-c2cccnc2[C@H](C)OC)c2c3cc(ccc31)-c1cc(O)cc(c1)C[C@H](NC(=O)[C@H](C(C)C)N(C)C(=O)[C@@H]1CN1)C(=O)N1CCC[C@H](N1)C(=O)OCC(C)(C)C2 [Compound 100] | 0.01 to 0.1 | < 5 | 0.1 to 1 | – | – | – |
| CCn1c(-c2cccnc2[C@H](C)OC)c2c3cc(ccc31)-c1cc(O)cc(c1)C[C@H](NC(=O)[C@H](C(C)C)N(C)C(=O)CN(C)C(=O)[C@H]1N[C@@H]1C1CC1)C(=O)N1CCC[C@H](N1)C(=O)OCC(C)(C)C2 [Compound 136] | – | – | – | < 0.01 | < 5 | – |
| CCn1c(-c2cccnc2[C@H](C)OC)c2c3cc(ccc31)-c1cc(O)cc(c1)C[C@H](NC(=O)[C@H](C(C)C)N(C)C(=O)CN(C)C(=O)[C@H]1CN1CCOC)C(=O)N1CCC[C@H](N1)C(=O)OCC(C)(C)C2 (some centres unmarked) [Compound 159] | – | – | – | < 0.01 | – | 0.1 to 1 |
| CCn1c(-c2cccnc2[C@H](C)OC)c2c3cc(ccc31)-c1cc(O)cc(c1)C[C@H](NC(=O)[C@H](C(C)C)N(C)C(=O)[C@@]1(C)CCCN1C(=O)[C@@H]1CN1)C(=O)N1CCC[C@H](N1)C(=O)OCC(C)(C)C2 [Compound 241] | < 0.01 | – | 0.1 to 1 | – | – | – |
| CCn1c(-c2cnccc2COC)c2c3cc(ccc31)-c1cc(O)cc(c1)C[C@H](NC(=O)[C@H](C(C)C)N(C)C(=O)[C@H]1CCN(C(=O)[C@@H]3CO3)C1)C(=O)N1CCC[C@H](N1)C(=O)OCC(C)(C)C2 [Example 31, (3S)—N-((2S)-1-(((6^3S,4S)-1^1-ethyl-2^5-hydroxy-1^2-(4-(methoxymethyl)pyridin-3-yl)-10,10-dimethyl-5,7-dioxo-6^1,6^2,6^3,6^4,6^5,6^6-hexahydro-1^1H-8-oxa-1(5,3)-indola-6(1,3)-pyridazina-2(1,3)-benzenacycloundecaphane-4-yl)amino)-3-methyl-1-oxobutan-2-yl)-N-methyl-1-((S)-oxirane-2-carbonyl)pyrrolidine-3-carboxamide] | 1 to 10 | – | > 10 | – | – | – |
